Test results taken from patent publication US8299056B2 (Signal Pharmaceuticals, LLC, priority 2008, dated 2012).

The compounds below were run against T1, Syk (Homo sapiens, UniProt P43405) (assay: Syk HTRF assay). Details: IC50 activity level, read-out: Activity Level.
T1 construct: purchased Carna Biosciences
Type: biochemical
Summary of the method: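 HTRF kinase assay in HEPES pH 7.6 buffer with MgCl2, DTT and Triton X100; start mix of 87.5 μM ATP and 80 nM biotinylated peptide, 1 h at room temperature. EDTA stop, then Eu-anti-phosphotyrosine/streptavidin-DyLight 647 detection, read as 665/615 nm emission ratio.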
Compound `CC1(C)C(=O)Nc2cc(Nc3nc4cccc(CC5CCOC5)n4n3)ccc21` (single isomer, unassigned; enantiomer 2) [Example 558, 3,3-dimethyl-6-(5-((tetrahydrofuran-3-yl)methyl)-[1,2,4]triazolo[1,5-a]pyridin-2-ylamino)indolin-2-one (enantiomer 2)] has an IC50 of 0.005 to 250 nM.
`Cc1nnc2cc(Nc3nc4cccc(CC5CCOCC5)n4n3)ccn12` [Example 538, 3-methyl-N-(5-((tetrahydro-2H-pyran-4-yl)methyl)-[1,2,4]triazolo[1,5-a]pyridin-2-yl)-[1,2,4]triazolo[4,3-a]pyridin-7-amine] was tested, and the IC50 was 1000 to 10000 nM.
Work on `Nc1n[nH]c2cc(Nc3nc4cccc(NC5CCCNC5)n4n3)ccc12` (stereo in doubt) [Example 450, (R)-N^2-(3-amino-1H-indazol-6-yl)-N^5-(piperidin-3-yl)-[1,2,4]triazolo[1,5-a]pyridin-2,5-diamine] yielded an IC50 of 0.005 to 250 nM.
Compound `O[C@@H]1CCC[C@@H]1Nc1cccc2nc(Nc3ccc(C(F)(F)F)cc3)nn12` [Example 406, (1R,2S)-2-(2-(4-(trifluoromethyl)phenylamino)-[1,2,4]triazolo[1,5-a]pyridin-5-ylamino)cyclopentanol] has an IC50 of 500 to 1000 nM.
Compound `c1ccc(Nc2nc3cccc(N[C@H]4CCNC4)n3n2)cc1` [Example 475, (S)-N^2-phenyl-N^5-(pyrrolidin-3-yl)-[1,2,4]triazolo[1,5-a]pyridin-2,5-diamine] has an IC50 of 250 to 500 nM.
`CNC(=O)c1ccc(Nc2nc3cccc(NC4CCCC4)n3n2)cc1` [Example 400, 4-(5-(cyclopentylamino)-[1,2,4]triazolo[1,5-a]pyridin-2-ylamino)-N-methylbenzamide] gave an IC50 of 0.005 to 250 nM.
For `Nc1noc2ccc(-c3cccc4nc(Nc5ccccc5)nn34)cc12` [Example 457, 5-(2-(phenylamino)-[1,2,4]triazolo[1,5-a]pyridin-5-yl)benzo[d]isoxazol-3-amine], the IC50 was 0.005 to 250 nM.
`OC(Cc1cccc2nc(Nc3ccc(F)cc3)nn12)C1CCNCC1` (stereo not shown) [Example 425, 2-(2-(4-fluorophenylamino)-[1,2,4]triazolo[1,5-a]pyridin-5-yl)-1-(piperidin-4-yl)ethanol] showed an IC50 of 1000 to 10000 nM.
With `Cc1n[nH]c2cc(Nc3nc4cccc(CC(C)CO)n4n3)ccc12` (stereo in doubt) [Example 555, (S)-2-methyl-3-(2-(3-methyl-1H-indazol-6-ylamino)-[1,2,4]triazolo[1,5-a]pyridin-5-yl)propan-1-ol] the IC50 was 0.005 to 250 nM.

Same assay, conditions: activity levels A-D, read-out: Activity Level (IC50 in the Syk HTRF assay)
`OCCCOc1cccc2nc(Nc3ccc(C(F)(F)F)cc3)nn12` [Example 304, 3-(2-(4-(trifluoromethyl)phenylamino)-[1,2,4]triazolo[1,5-a]pyridin-5-yloxy)propan-1-ol] was tested, and the IC50 was 1000 to 10000 nM.
For `CNc1ccc(Nc2nc3cccc(N[C@H]4CC[C@@H](O)CC4)n3n2)cn1` [Example 295, cis-4-(2-(6-(methylamino)pyridin-3-ylamino)-[1,2,4]triazolo[1,5-a]pyridin-5-ylamino)cyclohexanol], the IC50 was 0.005 to 250 nM.
`CC(NCc1cccc2nc(Nc3ccc(C(F)(F)F)cc3)nn12)C(N)=O` (racemic) [Example 233, (±)-2-((2-(4-(trifluoromethyl)phenylamino)-[1,2,4]triazolo[1,5-a]pyridin-5-yl)methylamino)propanamide] gave an IC50 of 500 to 1000 nM.
`Oc1cc(Nc2nc3cccc(N[C@H]4CC[C@@H](O)CC4)n3n2)ccn1` [Example 331, cis-4-(5-(4-hydroxycyclohexylamino)-[1,2,4]triazolo[1,5-a]pyridin-2-ylamino)pyridin-2-ol] gave an IC50 of 1000 to 10000 nM.
With `O[C@@H]1CCC[C@@H](Nc2cccc3nc(Nc4ccc(C(F)(F)F)cc4)nn23)C1` (single isomer, unassigned; enantiomer 1) [Example 225, trans-3-(2-(4-(trifluoromethyl)phenylamino)-[1,2,4]triazolo[1,5-a]pyridin-5-ylamino)cyclohexanol (enantiomer 1)] the IC50 was 0.005 to 250 nM.
With `CC1C(=O)NCCN1Cc1cccc2nc(Nc3ccc(C(F)(F)F)cc3)nn12` (stereo in doubt) [Example 275, (S)-3-methyl-4-((2-(4-(trifluoromethyl)phenylamino)-[1,2,4]triazolo[1,5-a]pyridin-5-yl)methyl)piperazin-2-one] the IC50 was 0.005 to 250 nM.
Compound `NCCCOc1cccc2nc(Nc3ccc(C(F)(F)F)cc3)nn12` [Example 321, 5-(3-aminopropoxy)-N-(4-(trifluoromethyl)phenyl)-[1,2,4]triazolo[1,5-a]pyridin-2-amine] has an IC50 of 1000 to 10000 nM.
`O=C1NCc2ccc(Nc3nc4cccc(N[C@H]5CC[C@@H](O)CC5)n4n3)cc21` [Example 260, cis-6-(5-(4-hydroxycyclohexylamino)-[1,2,4]triazolo[1,5-a]pyridin-2-ylamino)isoindolin-2-one] showed an IC50 of 500 to 1000 nM.
Work on `CC(C)(O)[C@H]1CC[C@H](Nc2cccc3nc(Nc4ccc(C(F)(F)F)cc4)nn23)CC1` (stereo in doubt) [Example 397, trans-2-(4-(2-(4-(trifluoromethyl)phenylamino)-[1,2,4]triazolo[1,5-a]pyridin-5-ylamino)cyclohexyl)propan-2-ol] yielded an IC50 of 1000 to 10000 nM.
For `OC1CCCC[C@H]1Nc1cccc2nc(Nc3ccc(C(F)(F)F)cc3)nn12` (stereo in doubt) [Example 270, (1S,2R)-2-(2-(4-(trifluoromethyl)phenylamino)-[1,2,4]triazolo[1,5-a]pyridin-5-ylamino)cyclohexanol], the IC50 was 1000 to 10000 nM.
For `OC1CCN(Cc2cccc3nc(Nc4ccc(C(F)(F)F)cc4)nn23)CC1` [Example 396, 1-((2-(4-(trifluoromethyl)phenylamino)-[1,2,4]triazolo[1,5-a]pyridin-5-yl)methyl)piperidin-4-ol], the IC50 was 1000 to 10000 nM.
In the case of `CNC(=O)c1ccc(Nc2nc3cccc(CC4CCC(O)C4)n3n2)cc1` (single isomer, unassigned; diastereomer 1) [Example 232, 4-(5-((3-hydroxycyclopentyl)methyl)-[1,2,4]triazolo[1,5-a]pyridin-2-ylamino)-N-methylbenzamide (diastereomer 1)], the IC50 is reported as 1000 to 10000 nM.

Same assay, conditions: read-out: Activity Level (Syk HTRF assay IC50)
Work on `CN1C(=O)C(C)(C)c2ccc(Nc3nc4cccc(NC5CCOC5)n4n3)cc21` (stereo in doubt) [compound 123, (R)-1,3,3-trimethyl-6-(5-(tetrahydrofuran-3-ylamino)-[1,2,4]triazolo[1,5-a]pyridin-2-ylamino)indolin-2-one] yielded an IC50 of 0.005 to 250 nM.
`Nc1ccc2cc(Nc3nc4cccc(-c5ccccc5)n4n3)ccc2n1` [compound 17] showed an IC50 of 0.005 to 250 nM.
Work on `Cc1cc(Nc2nc3cccc(NC4CCOCC4)n3n2)cc2c1C(C)(C)C(=O)N2` [compound 125, 3,3,4-trimethyl-6-(5-(tetrahydro-2H-pyran-4-ylamino)-[1,2,4]triazolo[1,5-a]pyridin-2-ylamino)indolin-2-one] yielded an IC50 of 0.005 to 250 nM.
Work on `Cc1n[nH]c2cc(Nc3nc4cccc(N[C@H]5CCOC5)n4n3)ccc12` [Example 182, (S)-N^2-(3-methyl-1H-indazol-6-yl)-N^5-(tetrahydrofuran-3-yl)-[1,2,4]triazolo[1,5-a]pyridin-2,5-diamine] yielded an IC50 of 250 to 500 nM.
`O=C(O)c1ccc(Nc2nc3cccc(-c4cccc(O)c4)n3n2)cc1` [compound 25, 4-(5-(3-hydroxyphenyl)-[1,2,4]triazolo[1,5-a]pyridin-2-ylamino)benzoic acid] was tested, and the IC50 was 0.005 to 250 nM.
`Cc1n[nH]c2cc(Nc3nc4cccc(CN5CCCC(F)(F)C5)n4n3)ccc12` [Example 184, 5-((3,3-difluoropiperidin-1-yl)methyl)-N-(3-methyl-1H-indazol-6-yl)-[1,2,4]triazolo[1,5-a]pyridin-2-amine] was tested, and the IC50 was 0.005 to 250 nM.
Compound `Cc1cc(Nc2nc3cccc(NC4CCOCC4)n3n2)cc2c1cnn2C` [Example 148, N^2-(1,4-dimethyl-1H-indazol-6-yl)-N^5-(tetrahydro-2H-pyran-4-yl)-[1,2,4]triazolo[1,5-a]pyridin-2,5-diamine] has an IC50 of 0.005 to 250 nM.
`CNC(=O)c1ccc(Nc2nc3cccc(-c4cccc(F)c4)n3n2)cc1` [compound 12, 4-(5-(3-fluorophenyl)-[1,2,4]triazolo[1,5-a]pyridin-2-ylamino)-N-methylbenzamide] was tested, and the IC50 was 250 to 500 nM.
`O=C1NCc2cc(Nc3nc4cccc(-c5ccccc5)n4n3)ccc21` [compound 69, 5-(5-phenyl-[1,2,4]triazolo[1,5-a]pyridin-2-ylamino)isoindolin-1-one] showed an IC50 of 250 to 500 nM.
`CC1(O)CN(c2cccc3nc(Nc4ccc5c(c4)NC(=O)C5(C)C)nn23)C1` [Example 171, 6-(5-(3-hydroxy-3-methylazetidin-1-yl)-[1,2,4]triazolo[1,5-a]pyridin-2-ylamino)-3,3-dimethylindolin-2-one] showed an IC50 of 0.005 to 250 nM.
Compound `CN(CCO)c1cccc2nc(Nc3ccc4c(c3)NC(=O)C4(C)C)nn12` [Example 153, 6-(5-((2-hydroxyethyl)(methyl)amino)-[1,2,4]triazolo[1,5-a]pyridin-2-ylamino)-3,3-dimethylindolin-2-one] has an IC50 of 0.005 to 250 nM.
Compound `CN(C)Cc1nc2ccc(Nc3nc4cccc(-c5cccc(F)c5)n4n3)cc2[nH]1` [compound 1, N-(2-((dimethylamino)methyl)-1H-benzo[d]imidazol-6-yl)-5-(3-fluorophenyl)-[1,2,4]triazolo[1,5-a]pyridin-2-amine] has an IC50 of 0.005 to 250 nM.
`CC1(C)C(=O)Nc2cc(Nc3nc4cccc(O[C@H]5CCOC5)n4n3)ccc21` [compound 133, (S)-3,3-dimethyl-6-(5-(tetrahydrofuran-3-yloxy)-[1,2,4]triazolo[1,5-a]pyridin-2-ylamino)indolin-2-one] was tested, and the IC50 was 250 to 500 nM.
`Cc1n[nH]c2cc(Nc3nc4cccc(NC5COCC5O)n4n3)ccc12` (racemic) [Example 166, (±)-trans-4-(2-(3-methyl-1H-indazol-6-ylamino)-[1,2,4]-triazolo[1,5-a]pyridin-5-ylamino)tetrahydrofuran-3-ol] gave an IC50 of 0.005 to 250 nM.
In the case of `CN1Cc2cc(Nc3nc4cccc(N[C@H]5CC[C@@H](O)CC5)n4n3)ccc2C1=O` [Example 135, cis-5-(5-(4-hydroxycyclohexylamino)-[1,2,4]triazolo[1,5-a]pyridin-2-ylamino)-2-methylisoindolin-1-one], the IC50 is reported as 0.005 to 250 nM.
For `Nc1noc2cc(Nc3nc4cccc(-c5ccccc5)n4n3)ccc12` [compound 44], the IC50 was 250 to 500 nM.
